We go through nine compounds from US9079915B2, “Thienyl- and furanyl-isoquinolinones and methods for using them” (priority 2008, dated 2015).

Molecules are shown by their SMILES. Where a name gives a salt, the structure may show the parent alone.

This test deals with T1, hrPARP-1 (human recombinant, Trevigen) (Homo sapiens, UniProt P09874).
T1 construct: purchased Trevigen
T1 sequence (P09874 whole entry): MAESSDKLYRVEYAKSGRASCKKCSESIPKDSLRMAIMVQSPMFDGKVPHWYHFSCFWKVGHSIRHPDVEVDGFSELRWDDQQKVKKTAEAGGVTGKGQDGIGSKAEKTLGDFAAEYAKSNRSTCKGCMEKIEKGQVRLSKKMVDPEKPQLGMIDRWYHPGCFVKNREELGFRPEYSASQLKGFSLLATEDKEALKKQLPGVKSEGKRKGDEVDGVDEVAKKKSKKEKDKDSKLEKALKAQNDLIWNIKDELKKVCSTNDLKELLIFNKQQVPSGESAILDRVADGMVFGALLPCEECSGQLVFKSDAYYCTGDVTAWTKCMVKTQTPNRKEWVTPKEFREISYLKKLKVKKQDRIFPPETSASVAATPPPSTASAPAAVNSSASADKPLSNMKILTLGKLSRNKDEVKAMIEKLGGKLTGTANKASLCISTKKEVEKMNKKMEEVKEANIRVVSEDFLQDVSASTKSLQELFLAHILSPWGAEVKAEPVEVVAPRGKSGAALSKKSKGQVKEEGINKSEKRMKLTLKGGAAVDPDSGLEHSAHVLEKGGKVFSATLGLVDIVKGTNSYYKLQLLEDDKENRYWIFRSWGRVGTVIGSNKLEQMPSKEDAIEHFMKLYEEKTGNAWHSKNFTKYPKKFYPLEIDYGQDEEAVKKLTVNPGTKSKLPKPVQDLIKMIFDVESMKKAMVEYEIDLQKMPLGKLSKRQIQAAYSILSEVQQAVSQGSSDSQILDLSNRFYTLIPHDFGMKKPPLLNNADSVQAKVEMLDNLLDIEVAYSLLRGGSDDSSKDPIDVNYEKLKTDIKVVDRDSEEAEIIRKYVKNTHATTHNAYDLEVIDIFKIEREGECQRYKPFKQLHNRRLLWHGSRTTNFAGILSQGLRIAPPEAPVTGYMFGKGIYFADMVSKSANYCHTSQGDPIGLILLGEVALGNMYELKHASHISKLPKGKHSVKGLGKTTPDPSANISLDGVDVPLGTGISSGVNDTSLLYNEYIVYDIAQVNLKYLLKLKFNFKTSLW
Briefly: Functional assessment of human PARP-1 enzymatic activity. The format is biochemical. To be noted: 1 U hrPARP-1, 15 μg/mL activated DNA, 5 μM NAD+, 20 min room temperature. The procedure: Functional Assessment of Human PARP-1 Enzymatic Activity
hrPARP-1 (human recombinant, Trevigen), Activated DNA (Sigma), 6(5H)-phenanthridinone (PND), (Sigma), NAD+ (Calbiochem), PARP-1 assay buffer (50 mM Tris, 2 mM MgCl2, pH 8.0), 20% acetophenone in EtOH, 2 M KOH
88% formic acid, 110° C. oven, Flexstation Plate Reader.
Compound plates were prepared by making a series of 1:3 dilutions for each tested compound, 10 steps of each at 20 μL in DMSO starting from a concentration of 5 mM. NAD^+ (39 μL of a 6.4 μM solution) were added to each well of a 96-well flat bottom fluorescent assay plate. Test compound (1 μL) was added to each well. To initiate the reaction, 10 μL of PARP (contains 5 U of PARP and 75 μg/mL activated DNA) was added with a final 1 U hrPARP-1, 15 μg/mL activated DNA and 5 μM of NAD^+. The highest concentration used for test compounds was 100 μM. The plates were incubated at room temperature on a shaker. After 20 min, 20 μL of 2 M KOH and 20 μL of 20% acetophenone were added. The plate was incubated 10 min. at 4° C., and 90 μL of 88% formic acid was added. After incubating in an 110° C. oven for 5 min, the plate was cooled to room temperature and read of a Flexstation Plate Reader (excitation at 360 nm, emission at 445 nm).
LSW data analysis software was used to generate PARP-1 IC50s.
Broadly, the IC50 is the point on the concentration scale where inhibition reaches its midpoint. Take `CN(C)Cc1cc2c([nH]c(=O)c3ccccc32)s1` [Example 3, 2-[(Dimethylamino)methyl]thieno[2,3-c]isoquinolin-5(4H)-one hydrochloride]: the IC50 amounted to 260 nM.

Regarding `CN(C)Cc1cc2c([nH]c(=O)c3cc(F)ccc32)s1` [Example 4, 2-[(Dimethylamino)methyl]-7-fluorothieno-[2,3-c]isoquinolin-5(4H)-one hydrochloride], the IC50 stood at 100 nM.

For `CN(C)Cc1cc2c([nH]c(=O)c3cccc(F)c32)s1` [Example 5, 2-[(Dimethylamino)methyl]-9-fluorothieno[2,3-c]isoquinolin-5(4H)-one hydrochloride], the IC50 worked out at 200 nM.

Turning to `CN(C)Cc1cc2c([nH]c(=O)c3ccc(Cl)cc32)s1` [Example 6, 8-Chloro-2-[(dimethylamino)methyl]thieno[2,3-c]isoquinolin-5(4H)-one hydrochloride], the IC50 was 2250 nM.

`CN(C)Cc1cc2c([nH]c(=O)c3cc(F)cc(O)c32)s1` [Example 7, 2-[(Dimethylamino)methyl]-7-fluoro-9-hydroxythieno[2,3-c]isoquinolin-5(4H)-one hydrochloride]: the IC50 stood at 38 nM.

Regarding `COc1ccc2c(=O)[nH]c3sc(CN(C)C)cc3c2c1` [Example 8, 2-[(Dimethylamino)methyl]-8-methoxythieno[2,3-c]isoquinolin-5(4H)-one hydrochloride], the IC50 is 2190 nM.

In the case of `CN(C)Cc1cc2c([nH]c(=O)c3ccccc32)o1` [Example 9, 2-[(Dimethylamino)methyl]furo[2,3-c]isoquinolin-5(4H)-one hydrochloride], the IC50 is 161 nM.

Take `O=c1[nH]c2sc(CN(Cc3ccccc3)Cc3ccccc3)cc2c2c(O)cccc12` [Example 16, 2-[(Dibenzylamino)methyl]-9-hydroxythieno[2,3-c]isoquinolin-5(4H)-one]: the IC50 came out at 1060 nM.

Turning to `CN(Cc1ccccc1)Cc1cc2c([nH]c(=O)c3cccc(O)c32)s1` [Example 17, 2-{[Benzyl(methyl)amino]methyl}-9-hydroxythieno[2,3-c]isoquinolin-5(4H)-one], the IC50 turned out to be 373 nM.
